Experimental data reported in publication PMC10796410 (Cancer Chemotherapy and Pharmacology, 2023).
Several values for one entry are separate records, joined by “and”; a condition that tells them apart may be missing. Identical values can stand only once. Like-named read-outs stand apart in the source and are kept apart here.

Experiments:
OAT3 = test system: OAT3; parameters: method as in earlier work; settings: in vitro studies; cited from earlier work
OCT1 = test system: OCT1; parameters: method as in earlier work; settings: in vitro studies; cited from earlier work
MATE1 = test system: MATE1; parameters: method as in earlier work; settings: in vitro studies; cited from earlier work
BCRP = test system: BCRP; parameters: method as in earlier work; settings: in vitro studies; cited from earlier work
OCT2 = test system: OCT2; parameters: method as in earlier work; settings: in vitro studies; cited from earlier work
MATE2K = test system: MATE2K; parameters: method as in earlier work; settings: in vitro studies; cited from earlier work
OATP1B1 = test system: OATP1B1; parameters: method as in earlier work; settings: in vitro studies; cited from earlier work
[1] = Plasma pharmacokinetics of olaparib in rats after a single oral dose, alone or with metformin (UPLC-MS/MS, non-compartmental); assay type: in vivo, Wistar rats; settings: for concentration at 0.083 h / concentration at 0.167 h / concentration at 0.333 h / concentration at 0.5 h / concentration at 0.75 h / concentration at 1 h / concentration at 2 h / concentration at 3 h / concentration at 4 h / concentration at 6 h / concentration at 8 h / concentration at 10 h / concentration at 12 h / concentration at 24 h / AUC(0-inf) / AUC(0-t) / Cmax / Tmax / Vd/F / k el: male, Wistar, rat, plasma; for concentration at 0.083 h / concentration at 0.167 h / concentration at 0.333 h / concentration at 0.5 h / concentration at 0.75 h / concentration at 1 h / concentration at 2 h / concentration at 3 h / concentration at 4 h / concentration at 6 h / concentration at 8 h / concentration at 10 h / concentration at 12 h / concentration at 24 h: oral, group mean, read-out: Cave_ola; for AUC(0-inf) / AUC(0-t) / Cmax / Tmax / Vd/F / k el: po; for AUC(0-inf) / AUC(0-t) / Cmax / Tmax / Vd/F / k el / Cl/F / t0.5: rat plasma, n = 8, mean ± SD
Description: All applicable international, national, and/or institutional guidelines for the care and use of animals were followed. The animals were given a standard diet and water ad libitum, and the experimental protocol for this study was approved by the Local Ethics Committee (No. 45/2022, of 27 May 2022), Poznań University of Life Sciences, Department of Animal Physiology and Biochemistry, Wołyńska 35, 60–637 Poznań, Poland. Adult male Wistar rats (weight 380–530 g) were used in the study. The animals were maintained under standard breeding conditions with a 12/12 h light–dark cycle (lights on at 06.00, lights off at 18.00) at constant room temperature (23 ± 2 °C), relative humidity of 55 ± 10% and given ad libitum access to food and water. The animals were allowed to acclimatize for a week before the beginning of the experiments. The rats were divided into three groups. […] The solution for oral metformin administration was prepared in saline at a single dose of 100 mg/kg. Drugs were orally administered to rats by gavage between 7:00 a.m. and 8:00 a.m. […] The blood samples were centrifuged at 5000 rpm for 10 min, and the plasma was transferred to new centrifuge tubes and then stored at – 80 °C.
A Cortecs UPLC C18 column (2.1 × 50 mm, 1.6 µm, Waters Corporation, Milford, MA, USA) was used for chromatographic separation. The column temperature and injection volume were set at 40 °C and 1 µl, respectively. The mobile phase comprised acetonitrile (eluent A) and 2 mM ammonium acetate in water (eluent B) with 0.1% 98–100% formic acid. The flow rate was maintained at 0.3 ml/min. The gradient elution was as follows: 0–3 min, 5% A; […]; 3–5 min, linear from 5 to 95% A; 5–6 min, linear from 95 to 5% A. The mass spectrometer operated in the multiple reaction monitoring mode.
The maximum plasma concentration (Cmax) and the time to reach the Cmax (tmax) were obtained directly from the measured values. All of the above-mentioned parameters underwent statistical analysis.

[2] = test system: epithelial ovarian cancer cell lines; settings: drugs given separately or co-administered; cited from earlier work
[3] = 100 mg/kg, IIIOLA: olaparib 100 mg/kg b.w. oral single dose alone
[4] = 100 mg/kg, IMET+OLA: metformin 100 mg/kg b.w. + olaparib 100 mg/kg b.w. oral single dose
[5] = IIIOLA: olaparib 100 mg/kg b.w. oral single dose alone
[6] = IMET+OLA: metformin 100 mg/kg b.w. + olaparib 100 mg/kg b.w. oral single dose

O=C(c1cc(Cc2n[nH]c(=O)c3ccccc23)ccc1F)N1CCN(C(=O)C2CC2)CC1 [olaparib, Olaparib]
inhibition of OAT3 (OAT3): inhibits | inhibition of OCT1 (OCT1): inhibits | inhibition of MATE1 (MATE1): inhibits | inhibition of BCRP (BCRP): inhibits | inhibition of OCT2 (OCT2): inhibits | inhibition of MATE2K (MATE2K): inhibits | inhibition of OATP1B1 (OATP1B1): inhibits | concentration at 0.083 h ([1]; 100 mg/kg, t 0.083 h, IIIOLA (olaparib alone)): 1080 ng/mL | concentration at 0.167 h ([1]; 100 mg/kg, t 0.167 h, IIIOLA (olaparib alone)): 2220 ng/mL | concentration at 0.333 h ([1]; 100 mg/kg, t 0.333 h, IIIOLA (olaparib alone)): 3790 ng/mL | concentration at 0.5 h ([1]; 100 mg/kg, t 0.500 h, IIIOLA (olaparib alone)): 4590 ng/mL | concentration at 0.75 h ([1]; 100 mg/kg, t 0.750 h, IIIOLA (olaparib alone)): 4440 ng/mL | concentration at 1 h ([1]; 100 mg/kg, t 1 h, IIIOLA (olaparib alone)): 7110 ng/mL | concentration at 2 h ([1]; 100 mg/kg, t 2 h, IIIOLA (olaparib alone)): 6050 ng/mL | concentration at 3 h ([1]; 100 mg/kg, t 3 h, IIIOLA (olaparib alone)): 4140 ng/mL | concentration at 4 h ([1]; 100 mg/kg, t 4 h, IIIOLA (olaparib alone)): 528 ng/mL | concentration at 6 h ([1]; 100 mg/kg, t 6 h, IIIOLA (olaparib alone)): 1460 ng/mL | concentration at 8 h ([1]; 100 mg/kg, t 8 h, IIIOLA (olaparib alone)): 851 ng/mL | concentration at 10 h ([1]; 100 mg/kg, t 10 h, IIIOLA (olaparib alone)): 480 ng/mL | concentration at 12 h ([1]; 100 mg/kg, t 12 h, IIIOLA (olaparib alone)): 196 ng/mL | concentration at 24 h ([1]; 100 mg/kg, t 24 h, IIIOLA (olaparib alone)): 27.2 ng/mL | concentration at 0.083 h ([1]; t 0.083 h, IMET+OLA (metformin and olaparib)): 1530 ng/mL | concentration at 0.167 h ([1]; t 0.167 h, IMET+OLA (metformin and olaparib)): 4270 ng/mL | concentration at 0.333 h ([1]; t 0.333 h, IMET+OLA (metformin and olaparib)): 7190 ng/mL | concentration at 0.5 h ([1]; t 0.500 h, IMET+OLA (metformin and olaparib)): 7240 ng/mL | concentration at 0.75 h ([1]; t 0.750 h, IMET+OLA (metformin and olaparib)): 7770 ng/mL | concentration at 1 h ([1]; t 1 h, IMET+OLA (metformin and olaparib)): 7120 ng/mL | concentration at 2 h ([1]; t 2 h, IMET+OLA (metformin and olaparib)): 6220 ng/mL | concentration at 3 h ([1]; t 3 h, IMET+OLA (metformin and olaparib)): 4080 ng/mL | concentration at 4 h ([1]; t 4 h, IMET+OLA (metformin and olaparib)): 3200 ng/mL | concentration at 6 h ([1]; t 6 h, IMET+OLA (metformin and olaparib)): 1190 ng/mL | concentration at 8 h ([1]; t 8 h, IMET+OLA (metformin and olaparib)): 490 ng/mL | concentration at 10 h ([1]; t 10 h, IMET+OLA (metformin and olaparib)): 155 ng/mL | concentration at 12 h ([1]; t 12 h, IMET+OLA (metformin and olaparib)): 94.4 ng/mL | concentration at 24 h ([1]; t 24 h, IMET+OLA (metformin and olaparib)): 74.8 ng/mL | AUC(0-inf) [1, 3]: 28600 ng·h/mL | AUC(0-t) [1, 3]: 28300 ng·h/mL | Cmax [1, 3]: 8720 ± 6800 ng/mL | Tmax [1, 3]: 1.18 ± 0.91 h | Vd/F [1, 3]: 22.5 ± 24.8 L | k el [1, 3]: 0.000122 s⁻¹ | AUC(0-inf) [1, 4]: 29000 ng·h/mL | AUC(0-t) [1, 4]: 28300 ng·h/mL | Cmax [1, 4]: 9420 ± 6330 ng/mL | Tmax [1, 4]: 1.11 ± 0.75 h | Vd/F [1, 4]: 12.5 ± 11.6 L | k el [1, 4]: 9.44e-05 s⁻¹ | Cl/F [1, 5]: 7.84 ± 15.21 l/h and 7.84 ± 15.21 (193.9) l/h | t0.5 [1, 5]: 4.79 ± 6.06 (126.5) h | Cl/F [1, 6]: 2.62 ± 2.07 l/h and 2.62 ± 2.07 (79.0) l/h | t0.5 [1, 6]: 3.18 ± 2.28 (71.7) h | C_ola ([1]; t 0.083 h, IMET+OLA (metformin and olaparib), individual rats 9-16): 399.8 ng/mL and 205.5 ng/mL and 1282.8 ng/mL and 2905.9 ng/mL and 1816.4 ng/mL and 1671.7 ng/mL and 346.2 ng/mL and 3579.7 ng/mL | C_ola ([1]; t 0.167 h, IMET+OLA (metformin and olaparib), individual rats 9-16): 735.8 ng/mL and 409.9 ng/mL and 5081.5 ng/mL and 9225.7 ng/mL and 5056.5 ng/mL and 3857.8 ng/mL and 1362.6 ng/mL and 8409.9 ng/mL | C_ola ([1]; t 0.333 h, IMET+OLA (metformin and olaparib), individual rats 9-16): 1895.1 ng/mL and 1378.1 ng/mL and 6639.2 ng/mL and 14659.7 ng/mL and 8931.6 ng/mL and 11236.6 ng/mL and 1385.6 ng/mL and 11426.1 ng/mL | C_ola ([1]; t 0.500 h, IIIOLA (olaparib alone), individual rats 1-8): 3742.4 ng/mL and 535.2 ng/mL and 12507.8 ng/mL and 7237.7 ng/mL and 6302.7 ng/mL and 1652.9 ng/mL and 418.2 ng/mL and 8077.9 ng/mL | C_ola ([1]; t 0.500 h, IMET+OLA (metformin and olaparib), individual rats 9-16): 3714.2 ng/mL and 1709.6 ng/mL and 7002.5 ng/mL and 13973.1 ng/mL and 6376.6 ng/mL and 773.6 ng/mL and 17095.7 ng/mL | C_ola ([1]; t 0.750 h, IIIOLA (olaparib alone), individual rats 1-8): 3804.2 ng/mL and 2586.8 ng/mL and 15300.4 ng/mL and 11009.1 ng/mL and 7991.7 ng/mL and 1511.2 ng/mL and 355.6 ng/mL and 8277 ng/mL | C_ola ([1]; t 0.750 h, IMET+OLA (metformin and olaparib), individual rats 9-16): 3217.4 ng/mL | C_ola ([1]; t 1 h, IIIOLA (olaparib alone), individual rats 1-8): 6130.9 ng/mL and 3469.6 ng/mL and 13706 ng/mL and 16348.7 ng/mL and 9042.2 ng/mL and 1418.9 ng/mL and 698.2 ng/mL and 6102.6 ng/mL | C_ola ([1]; t 2 h, IIIOLA (olaparib alone), individual rats 1-8): 8834.3 ng/mL and 2628.7 ng/mL and 19817.4 ng/mL and 10845 ng/mL and 3432.4 ng/mL and 1456.7 ng/mL and 45.1 ng/mL and 1370.2 ng/mL | C_ola ([1]; t 3 h, IIIOLA (olaparib alone), individual rats 1-8): 10275 ng/mL and 2662.1 ng/mL and 12843.4 ng/mL and 4820.1 ng/mL and 969 ng/mL and 1168.9 ng/mL and 6.7 ng/mL and 409.4 ng/mL | C_ola ([1]; t 4 h, IIIOLA (olaparib alone), individual rats 1-8): 437.9 ng/mL and 948.8 ng/mL and 197 ng/mL | C_ola ([1]; t 6 h, IIIOLA (olaparib alone), individual rats 1-8): 5403.6 ng/mL and 829.1 ng/mL and 4359.8 ng/mL and 822.4 ng/mL and 31.7 ng/mL and 206.3 ng/mL and 4.8 ng/mL and 35.7 ng/mL | C_ola ([1]; t 8 h, IIIOLA (olaparib alone), individual rats 1-8): 2408.4 ng/mL and 295.6 ng/mL and 2024.1 ng/mL and 243.9 ng/mL and 17.4 ng/mL and 116.3 ng/mL | C_ola ([1]; t 10 h, IIIOLA (olaparib alone), individual rats 1-8): 701.7 ng/mL and 75.4 ng/mL and 1071 ng/mL and 70.2 ng/mL | C_ola ([1]; t 12 h, IIIOLA (olaparib alone), individual rats 1-8): 362.3 ng/mL and 53.7 ng/mL and 337 ng/mL and 32.3 ng/mL | C_ola ([1]; t 24 h, IIIOLA (olaparib alone), individual rats 1-8): 34.8 ng/mL and 36.4 ng/mL and 10.4 ng/mL | percentage of late apoptotic cells [2]: 5.1%
